Measured values taken from patent EP2982368A1, “Small molecule compounds displacing focal adhesion core components” (Universität Konstanz, priority 2014, dated 2016).

Experiments:
[1] = target: T1, Kinase domain of human FAK (Homo sapiens, UniProt Q05397, P410G); experiment: ELISA-based in vitro kinase assay; format: biochemical; details: poly-Glu-Tyr substrate, 1 h at 30°C
T1 construct: Kinase domain of human FAK (aa 410-689, hFAK-KD) was expressed; 6xHis (N); made in house; host or cells: Sf9 insect cells (baculovirus, pVL1392)
Protocol: Kinase domain of human FAK (aa 410-689, hFAK-KD) was expressed with an amino-terminal 6xHis-tag and a carboxy-terminal Nef epitope-tag. FAK residue 410 was changed from proline to glycine. Expression of the fusion protein was performed in Sf9 insect cells using the pVL1392 transfer vector and the BacuIoGold Transfection Kit (BD Biosciences, San Diego, USA). Cells were lysed in Sf9 lysis buffer (0.33% Tween20, 1 mM EDTA, 500 mM NaCl, 100 µM PMSF, 1 mM β-Mercaptoethanol in 25 mM TrisHCl, pH 7.5) for 20 min at 4°C. Subsequently, the lysate was cleared by centrifugation and hFAK-KD was purified from the soluble fraction under native conditions by FPLC using a HisTrapFFcrude 1 mL column (GE Healthcare, Munich, Germany)
A microtiter plate was coated with 2 µg/well of poly(Glu:Tyr) (4:1) copolymer (Sigma-Aldrich, Steinheim, Germany) as artificial FAK substrate and blocked with 2% BSA in PBS with 0.01% Tween20. Purified hFAK-KD together with 100 µM ATP were added in kinase buffer (125 mM NaCl, 48 mM MgCl2, 50 mM HEPES, pH 7.5) in presence of various concentrations of test compounds and incubated for 1 h at 30°C. The reaction was stopped by the addition of EDTA and wells were extensively washed with 0.05% Tween20 in PBS. Phosphorylated substrate was detected by monoclonal anti-phosphotyrosine antibody followed by peroxidasecoupled goat anti-mouse antibody. […] The absorbance was measured at 450 nm.

FAK = experiment: Immunoblot of FAK and paxillin protein level and FAK Tyr397 phosphorylation; format: cell-based, mouse; details: serum-starved GFP-FAK MEFs, increasing concentrations, 30 min
Protocol: Image J was used to automatically quantify FAK-containing focal adhesions due to local maxima of fluorescence intensity in the GFP-channel (5 to 70 pixel). The number of cells was automatically counted in the Hoechst channel. To test reproducibility of the system 40 control wells were quantified wherein four positions for each well were imaged. […] GFP-FAK mouse embryonic fibroblasts were seeded on fibronectin and incubated for 1 h with the indicated concentrations of the small compounds, respectively. […] GFP-FAK mouse embryonic fibroblasts were seeded on fibronectin and serum-starved overnight. The indicated concentrations of Mb31 were applied for 30 min. Cells were lysed and analyzed for paxillin and FAK protein level as well as FAK Tyr397 phosphorylation. […] The purified kinase domain of FAK was incubated with increasing amounts of Mb31 for 1 h at 30°C together with poly-Glu-Tyr as a FAK substrate. […] Cell viability was assessed by MTT assay. […] Migration was recorded from cells that were cultured without serum (A), with serum (B) or with serum in the presence of 3 µM Mb31 (C). […] Mouse embryonic fibroblasts (MEFs) were transfected with talin-mCherry and talin dynamics analyzed in focal adhesions using fluorescence recovery after photobleaching (FRAP). […] (C) Wound closure was microscopically analyzed and evaluated using ImageJ software. […]

[2] = system: MDA-MB-231 breast cancer cells; experiment: In vitro wound healing assay; format: cell-based, human; details: 3 µM, 25 h, serum-containing growth medium
Protocol: Image J was used to automatically quantify FAK-containing focal adhesions due to local maxima of fluorescence intensity in the GFP-channel (5 to 70 pixel). The number of cells was automatically counted in the Hoechst channel. To test reproducibility of the system 40 control wells were quantified wherein four positions for each well were imaged. […] GFP-FAK mouse embryonic fibroblasts were seeded on fibronectin and incubated for 1 h with the indicated concentrations of the small compounds, respectively. […] GFP-FAK mouse embryonic fibroblasts were seeded on fibronectin and serum-starved overnight. The indicated concentrations of Mb31 were applied for 30 min. Cells were lysed and analyzed for paxillin and FAK protein level as well as FAK Tyr397 phosphorylation. […] The purified kinase domain of FAK was incubated with increasing amounts of Mb31 for 1 h at 30°C together with poly-Glu-Tyr as a FAK substrate. […] Serum-starved GFP-FAK mouse embryonic fibroblasts were stimulated with normal growth medium and incubated for 5 h with the indicated concentrations of the small molecule compounds, respectively. Cell viability was assessed by MTT assay. […] GFP-FAK MEFs were seeded on fibronectin and serum-starved overnight. Migration was stimulated by replacing the medium with normal growth medium. Migration of single cells was tracked for 8 h in 30 min intervals. Migration was recorded from cells that were cultured without serum (A), with serum (B) or with serum in the presence of 3 µM Mb31 (C). […] (A) GFP-FAK MEFs were seeded and serum-starved as in Figure 10. Cell migration was stimulated with normal growth medium and single cells were tracked for 5 h. (B) Mb31 was added and the same cells were tracked for additional 5 h. (C) Mean velocities of differently treated cells were plotted over time. […] NIH-v-Src fibroblasts were seeded on 2 µg/ml FN in DMEM/0.5%BSA and stimulated with 10 ng/ml EGF or kept unstimulated. […] Mouse embryonic fibroblasts (MEFs) were transfected with talin-mCherry and talin dynamics analyzed in focal adhesions using fluorescence recovery after photobleaching (FRAP). Cells were left untreated (A) or treated with 10 µM of Mb31 (B). In untreated cells, the mCherry intensity recovered, indicating replacement of bleached by non-bleached talin and therefore turnover of talin at focal adhesions. […] (C) Wound closure was microscopically analyzed and evaluated using ImageJ software.
To determine if the migration of transformed cells can be blocked by FLocker1 and related compounds, human breast carcinoma cells (MDA-MB-231) were used in in vitro wound healing assays. […] The ability of the cells to migrate and close the wound space was monitored by microscopy and quantified (Figure 18B and C).

T1 sequence (Q05397 410-689 P410G): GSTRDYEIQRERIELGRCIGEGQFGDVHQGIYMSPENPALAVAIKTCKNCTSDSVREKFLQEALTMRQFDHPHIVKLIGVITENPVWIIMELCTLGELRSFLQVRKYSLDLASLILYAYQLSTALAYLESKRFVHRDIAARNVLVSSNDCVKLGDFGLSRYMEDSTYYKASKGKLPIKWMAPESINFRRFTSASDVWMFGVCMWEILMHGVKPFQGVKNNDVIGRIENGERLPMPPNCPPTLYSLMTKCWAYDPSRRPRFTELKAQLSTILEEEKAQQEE

## O=[N+]([O-])C=Cc1cc(Br)cs1 [FootLocker 1, 4-bromo-2-(2-nitrovinyl)thiophene]
[1]
  in vitro activity of purified FAK kinase domain (FAK substrate phosphorylation): not altered
FAK
  Y397 phosphorylation of FAK: not influenced
  degradation of FAK and paxillin (protein levels): Neither for FAK nor for paxillin was any degradation observed
[2]
  migration of cancer cells / wound closure: retarded the migration of the cancer cells
